row,melting point,Compound
1,58 to 61 °C,"CCCCCNC(=O)c1cc(N2CCN(C(=O)c3ccccc3C(F)(F)F)CC2)nn1C(=O)OCc1ccccc1 [Example 6, 5-PENTYLCARBAMOYL-3-[4-(2-TRIFLUOROMETHYLBENZOYL)PIPERAZIN-1-YL]PYRAZOLE-1-CARBOXYLIC ACID BENZYL ESTER]"
2,92 to 94 °C,"CCCCCNC(=O)c1cnc(N2CCN(C(=O)c3ccccc3C(F)(F)F)CC2)s1 [Example 7, 2-[4-(2-TRIFLUOROMETHYLBENZOYL)PIPERAZIN-1-YL]-THIAZOLE-5-CARBOXYLIC ACID PENTYLAMIDE]"
